The source of these data is patent US7687491B2, “Heterocyclic compound” (Daiichi Sankyo Company, Limited, priority 2005, dated 2010).

Structures can show the parent of a compound that is named as a salt.

The test system of this experiment is host-versus-graft reaction (HvGR) in the rat. The experiment can be described thus: Inhibitory activity against host-versus-graft reaction (HvGR) in the rat (popliteal lymph node weight). The format is in vivo. The following applies: po, 1 mg/kg orally once daily for 4 successive days, Lewis rats injected with WKAH/Hkm spleen cells, weight of popliteal lymph nodes vs control group, read-out: Inhibition Rate (%, 1 mg/kg of administration). The source says: Determination of Inhibitory Activities of the Compound Against Host-Versus-graft Reaction (HvGR) in the Rat
(1) Two strains of rats [Lewis rats (male, 6 weeks of age, Charles River Japan Inc.) and WKAH/Hkm rats (male, 7 weeks of age, Japan SLC Inc.)] were used. Five rats (host) per group were used.
Spleen cells were isolated from the spleens of WKAH/Hkm rats or Lewis rats and floated in RPMI1640 medium (Life Technologies Inc.) at a concentration of 1×10^8 cells/ml. A 0.1-ml aliquot of the medium containing the free-floating spleen cells (1×10^7 cells) of WKAH/Hkm rats or Lewis rats was then intradermally injected into the bilateral foot pads of the hindlimbs of both sides of Lewis rats.
(3) Administration of Test Compound
The test compound was suspended in 0.5% tragacantha solution. The suspended solution of a compound of the present invention (5 ml/kg of body weight of the rat) was orally administered to rats of the drug-treated group (the Lewis rats in which spleen cells of WKAH/Hkm rats were injected and the test compound was administered) once daily for 4 successive days starting on the day of the spleen cell injection. Furthermore, tragacantha solution (0.5%) instead of the test substance was orally administered to rats in the “same strain group” (Lewis rats injected with spleen cells of Lewis rats) and the control group (Lewis rats injected with spleen cells of WKAH/Hkm rats and not treated with the test compound).
(4) Determination of Inhibitory Activity Against HvGR
The average weight of the popliteal lymph nodes of the same strain rats was subtracted from the individual weights of the popliteal lymph nodes of individual rats (“weight of the popliteal lymph nodes after HvGR-induction”). The inhibitory activity of a compound was calculated from the “weight of the popliteal lymph nodes after HvGR induction” of individual rats in the drug-treated group versus the average “weight of the popliteal lymph nodes after HvGR induction” in the control group.
As to `CCc1cc(CN2CC(C(=O)O)C2)sc1-c1noc(-c2ccc(Oc3ccccc3F)cc2)n1` [Example 10, 1-[(4-Ethyl-5-{5-[4-(2-fluorophenoxy)phenyl]-1,2,4-oxadiazol-3-yl}-2-thienyl)methyl]azetidine-3-carboxylic acid 1/2 oxalate], the inhibition in vivo at 1 mg/kg was 61.8%. The figure for `Cc1cc(CN2CC(C(=O)O)C2)sc1-c1noc(-c2ccc(Oc3ccccc3)c(F)c2)n1` [Example 11, 1-({5-[5-(3-Fluoro-4-phenoxyphenyl)-1,2,4-oxadiazol-3-yl]-4-methyl-2-thienyl}methyl)azetidine-3-carboxylic acid] is 51.6%. Regarding `Cc1cc(CN2CC(C(=O)O)C2)sc1-c1noc(-c2ccc(Oc3ccccc3)cc2)n1` [Example 12, 1-({4-Methyl-5-[5-(4-phenoxyphenyl)-1,2,4-oxadiazol-3-yl]-2-thienyl}methyl)azetidine-3-carboxylic acid], the inhibition in vivo at 1 mg/kg amounted to 55.4%.

Take `CCc1cc(CN2CC(C(=O)O)C2)sc1-c1noc(-c2ccc(Oc3ccccc3)cc2)n1` [Example 13, 1-({4-Ethyl-5-[5-(4-phenoxyphenyl)-1,2,4-oxadiazol-3-yl]-2-thienyl}methyl)azetidine-3-carboxylic acid]: the inhibition in vivo at 1 mg/kg came out at 61.3%. Regarding `CCc1cc(CN2CC(C(=O)O)C2)sc1-c1noc(-c2ccc(Oc3ccccc3)c(F)c2)n1` [Example 14, 1-({4-Ethyl-5-[5-(3-fluoro-4-phenoxyphenyl)-1,2,4-oxadiazol-3-yl]-2-thienyl}methyl)azetidine-3-carboxylic acid], the inhibition in vivo at 1 mg/kg came out at 65.6%.

For `CCc1cc(CN2CC(C(=O)O)C2)sc1-c1noc(-c2ccc(Oc3cccc(F)c3)cc2)n1` [Example 17, 1-[(4-Ethyl-5-{5-[4-(3-fluorophenoxy)phenyl]-1,2,4-oxadiazol-3-yl}-2-thienyl)methyl]azetidine-3-carboxylic acid], the inhibition in vivo at 1 mg/kg is 65%. `CC(C)Cc1ccc(-c2nc(-c3ccc(CN4CC(C(=O)O)C4)nc3)no2)cc1Cl` [Example 26, 1-({5-[5-(3-Chloro-4-isobutylphenyl)-1,2,4-oxadiazol-3-yl]pyridin-2-yl}methyl)azetidine-3-carboxylic acid]: the inhibition in vivo at 1 mg/kg worked out at 80%.

For the molecule `Cc1cc(-c2nc(-c3ccc(CN4CC(C(=O)O)C4)nc3C)no2)ccc1CC(C)C` [Example 27, 1-({5-[5-(4-Isobutyl-3-methylphenyl)-1,2,4-oxadiazol-3-yl]-6-methylpyridin-2-yl}methyl)azetidine-3-carboxylic acid 1/2 oxalate], the inhibition in vivo at 1 mg/kg was found to be 80.6%. For `Cc1cc(-c2nc(-c3ccc(CN4CC(C(=O)O)C4)nc3)no2)ccc1CC(C)C` [Example 28, 1-({5-[5-(4-Isobutyl-3-methylphenyl)-1,2,4-oxadiazol-3-yl]pyridin-2-yl}methyl)azetidine-3-carboxylic acid 1/2 oxalate] the value was 77.5%. Take `CCc1nc(CN2CC(C(=O)O)C2)ccc1-c1noc(-c2ccc(CC(C)C)c(C)c2)n1` [Example 29, 1-({6-Ethyl-5-[5-(4-isobutyl-3-methylphenyl)-1,2,4-oxadiazol-3-yl]pyridin-2-yl}methyl)azetidine-3-carboxylic acid]: the inhibition in vivo at 1 mg/kg came to 83.5%. For `CC[C@H](C)Oc1ccc(-c2nc(-c3ccc(CN4CC(C(=O)O)C4)cc3)no2)cc1` [Reference Compound 1, reference compound], the inhibition in vivo at 1 mg/kg is -15.5%. The figure for `O=C(O)C1CN(Cc2ccc(-c3noc(-c4ccc(OC5CCC5)cc4)n3)cc2)C1` [Reference Compound 2, reference compound] is -19%.
